Laboratory results taken from US20150209315A1 (Cumberland Pharmaceuticals, priority 2009, published 2015).
Where “and” joins values, the source holds several entries; their conditions need not be identical. Equal entries are not always repeated.

Experiments:
Assay type in all cases: in vivo, human
[1] = test system: post-operative adult patients; assay: Example 1: morphine usage in the 24 hours following surgery
Protocol: The reference product, dose and mode of administration was normal saline, 100 ml, intravenous. Saline was chosen as the control group (placebo) for this study, to ensure blinding and allow for analysis of treatment effect. The duration of treatment was up to 5 days post surgery. […] Groups were stratified according to two age groups: <45 and >45 to 70 years of age and two weight groups: <75 kg and >75 kg of weight. The study participants were randomized based on criteria for an efficacy evaluable population (EEP) versus an intent to treat population (ITT). The ITT included all patients who were randomized and received at least a partial dose of ibuprofen. […] Eligible patients were randomized to one of the three treatment groups. All patients were able (but were not required) to receive morphine until approximately 45 minutes before the end of the surgical procedure. After that time, only fentanyl was allowed until the end of the operation. The first dose of ibuprofen was administered at approximately the initiation of skin closure. […] Other than ibuprofen or placebo, only morphine was administered for pain. […] Additional morphine could be administered at the discretion of the treating physician if adequate pain control had still not been achieved. Patients given non-morphine analgesics were classified as treatment failures. Treatment failures were not replaced. […] Secondary efficacy parameters were also evaluated and compared among the treatment groups using appropriate statistical methods described in the statistical analysis section of the protocol. Safety information was compared between the treatment groups using Chi-Square or Cochran-Mantel-Haenszel test. Demographic, background and baseline information among the treatment groups was also described. […] Efficacy analyses were performed on the Intent to Treat (ITT) population and the Efficacy Evaluable Population (EEP). In addition a subset of EEP patients who underwent abdominal hysterectomies (AH) were analyzed separately to evaluate efficacy in a more homogenous population.

[2] = test system: post-operative adult patients; assay: Example 2: morphine use in the 24 hours following abdominal hysterectomy surgery; details: 800 mg; for Morphine Requirement, Mean (SD) / Morphine Requirement, Median: 24 hours following surgery; for Transformed Morphine Requirement, LSMeans (SE) / Transformed Morphine Requirement, Max / Transformed Morphine Requirement, Mean (SD) / Transformed Morphine Requirement, Median / Transformed Morphine Requirement, Min: Box Cox transformation
Protocol: To be eligible for this study, the patients met the following inclusion criteria: 1) scheduled for elective abdominal hysterectomy surgery with anticipated need for post-operative I.V. morphine analgesia with anticipated use of greater than 24 hours; 2) adequate IV access; and 3) anticipated hospital stay greater than 24 hours. The study exclusion criteria required patients only between the ages of 18 and 70 years old. […] Efficacy was measured by comparing the reduction in morphine use over the 24 hours immediately post surgery. Efficacy was measured by reduction in the requirement for the narcotic analgesic, morphine, in the 24 hours post surgery.
The Clinical Trial Material (“CTM”) was mixed in 250 mL normal saline. Saline was chosen as the control group (placebo) for this study, to ensure blinding and allow for analysis of treatment effect.
By protocol, patients were to be dosed every six hours for five doses, then as necessary (PRN) for pain every six hours for up to five days post surgery. However, after 24 hours through day 5, CTM had to be discontinued if there was a requirement for narcotic pain medication other than morphine or non-narcotic medications including the use of another NSAID. Further, after 24 hours through day 5, CTM may have been discontinued if there was resolution of pain, no IV access or discharge from the hospital.
The study participants were randomized based on criteria for an efficacy evaluable population (EEP) versus an intent to treat population (ITT). […] The intent-to-treat population (ITT) consists of AT patients who received at least one post-surgical dose of CTM or at least one dose of morphine for break-through pain. The efficacy evaluable population (EEP) consists of all ITT patients who received each of the first five doses of CTM within 60 minutes of the scheduled time and who have the 6-hour and 28-hour VAS with movement assessments.
Eligible patients were randomized to one of the two treatment groups. All patients were able (but were not required) to receive morphine until approximately 45 minutes before the end of the surgical procedure. After that time, only fentanyl was allowed until the end of the operation. […] Upon discharge from the operating room, patients had access to morphine (approximately 1-2 mg q 5 minutes) upon patient request or delivered by patient-controlled analgesia (PCA). […] Upon discharge from the operating room, patients had access to 1 mg morphine every 5 minutes upon request or by patient-controlled analgesia (PCA). […] Patients given non-morphine analgesics were classified as treatment failures. Treatment failures were not replaced.
Patients were evaluated and compared for morphine requirements between the active doses and placebo using analysis of variance and covariance procedures at an overall alpha level of 0.05. Secondary efficacy parameters were also evaluated and compared among the treatment groups using appropriate statistical methods described in the statistical analysis section of the protocol. Safety information was compared between the treatment groups using Chi-Square or Cochran-Mantel-Haenszel test. Demographic, background and baseline information among the treatment groups was also described.
The primary endpoint for the study was reduction in the requirement for morphine use in the 24 hours following surgery as measured by total morphine usage compared to placebo. Analysis of variance and covariance procedures were used to compare the reduction in the requirement for morphine use in the 24 hours following surgery among the treatment groups. Dunnet's test was used as a multiple comparison test to compare active dose groups with the placebo group at an overall alpha level of 0.05. In the primary model, center was introduced as a covariate.

[3] = test system: patients undergoing orthopedic surgical procedures; assay: Example 3: additional measurements of efficacy; details: 800 mg
Text: Additional measurements of efficacy were incidence of treatment failure, time to GI motility, time to resumption of ambulation, time to resumption of liquid intake, time to resumption of solid diet, and length of hospital stay.

[4] = 400 mg, AH (abdominal hysterectomies)
[5] = 800 mg, AH (abdominal hysterectomies)

**Q.** Which results are given for `CC(C)Cc1ccc(C(C)C(=O)O)cc1` (stereo not drawn) [Ibuprofen, 2-(4-isobutylphenyl) propionic acid]?
**A.** Morphine Usage in the 24 Hours Following Surgery, % Reduction vs. PBO [1, 4]: 15.9% and 16%; Morphine Usage in the 24 Hours Following Surgery, Median [1, 4]: 45.00; Morphine Usage in the 24 Hours Following Surgery, % Reduction vs. PBO ([1]; 400 mg, AH (abdominal hysterectomies), listed as IVIb): 15.89%; Morphine Usage in the 24 Hours Following Surgery, % Reduction vs. PBO ([1]; 400 mg, EEP): 4.4%; Morphine Usage in the 24 Hours Following Surgery, Median ([1]; 400 mg, EEP): 43.00; Morphine Usage in the 24 Hours Following Surgery, % Reduction vs. PBO ([1]; 400 mg, EEP, listed as IVIb): 4.44%; Morphine Usage in the 24 Hours Following Surgery, % Reduction vs. PBO ([1]; 400 mg, ITT): 2.76%; Morphine Usage in the 24 Hours Following Surgery, Median ([1]; 400 mg, ITT): 44.00; Morphine Usage in the 24 Hours Following Surgery, % Reduction vs. PBO [1, 5]: 41.1% and 41%; Morphine Usage in the 24 Hours Following Surgery, Median [1, 5]: 31.50; Morphine Usage in the 24 Hours Following Surgery, % Reduction vs. PBO ([1]; 800 mg, AH (abdominal hysterectomies), listed as IVIb): 41.12%; Morphine Usage in the 24 Hours Following Surgery, Median ([1]; 800 mg, EEP): 33.50; Morphine Usage in the 24 Hours Following Surgery, % Reduction vs. PBO ([1]; 800 mg, EEP, listed as IV ibuprofen): 26%; Morphine Usage in the 24 Hours Following Surgery, % Reduction vs. PBO ([1]; 800 mg, EEP, listed as IVIb): 25.56%; Morphine Usage in the 24 Hours Following Surgery, % Reduction vs. PBO ([1]; 800 mg, ITT): 21.6%; Morphine Usage in the 24 Hours Following Surgery, Median ([1]; 800 mg, ITT): 35.50; Morphine Usage in the 24 Hours Following Surgery, % Reduction vs. PBO ([1]; 800 mg, ITT, listed as IVIb): 21.55%; Morphine Requirement, Max ([2]; Efficacy Evaluable): 143.3 mg; Morphine Requirement, Min ([2]; Efficacy Evaluable): 4.0 mg; Morphine Requirement, Mean (SD) ([2]; Efficacy Evaluable): 45.5 mg and 45.5 (24.6) mg; Morphine Requirement, Median ([2]; Efficacy Evaluable): 42.0 mg; Transformed Morphine Requirement, LSMeans (SE) ([2]; Efficacy Evaluable): 10.8 (0.3) mg; Transformed Morphine Requirement, Max ([2]; Efficacy Evaluable): 21.2 mg; Transformed Morphine Requirement, Mean (SD) ([2]; Efficacy Evaluable): 10.7 (3.5) mg; Transformed Morphine Requirement, Median ([2]; Efficacy Evaluable): 10.7 mg; Transformed Morphine Requirement, Min ([2]; Efficacy Evaluable): 2.0 mg; Morphine Requirement, Max ([2]; Intent-to-Treat): 143.3 mg; Morphine Requirement, Min ([2]; Intent-to-Treat): 4.0 mg; Morphine Requirement, Mean (SD) ([2]; Intent-to-Treat): 47.3 mg and 47.3 (25.6) mg; Morphine Requirement, Median ([2]; Intent-to-Treat): 43.5 mg; Transformed Morphine Requirement, LSMeans (SE) ([2]; Intent-to-Treat): 12.1 (0.4) mg; Transformed Morphine Requirement, Max ([2]; Intent-to-Treat): 23.5 mg; Transformed Morphine Requirement, Mean (SD) ([2]; Intent-to-Treat): 11.8 (4.0) mg; Transformed Morphine Requirement, Median ([2]; Intent-to-Treat): 11.8 mg; Transformed Morphine Requirement, Min ([2]; Intent-to-Treat): 2.0 mg; treatment failure, time to GI motility, ambulation, liquid intake, solid diet, length of hospital stay vs placebo [3]: no significant differences between treatment groups
